Source: patent publication US20230036854A1, “HETEROCYCLIC SPIRO-COMPOUNDS AS AM2 RECEPTOR INHIBITORS” (THE UNIVERSITY OF SHEFFIELD, priority 2018, published 2023)

What follows are compounds tested against T1, AM2 receptor (1321N1 cells transfected with CALCRL+RAMP3) (Homo sapiens, UniProt O60896+Q16602) (assay: AM2 receptor inhibition, LANCE cAMP agonist-antagonist competition assay). Details: inhibition of AM induced cAMP activation, read-out: AM2 D2 protocol: pIC50 (converted).
T1 construct: host or cells: 1321N1 cells
Assay type: cell-based
Outline: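 cAMP was quantified by LANCE TR-FRET after an EC50 challenge with adrenomedullin (15 min, room temperature) in CALCRL+RAMP3-transfected 1321N1 cells (2500/well) that had first been exposed to compound for 30 min. Buffer was pH 7.4 HBSS with HEPES and BSA. Forskolin defined 100% stimulation and vehicle 0%.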

T1 sequence (Q16602 23-461): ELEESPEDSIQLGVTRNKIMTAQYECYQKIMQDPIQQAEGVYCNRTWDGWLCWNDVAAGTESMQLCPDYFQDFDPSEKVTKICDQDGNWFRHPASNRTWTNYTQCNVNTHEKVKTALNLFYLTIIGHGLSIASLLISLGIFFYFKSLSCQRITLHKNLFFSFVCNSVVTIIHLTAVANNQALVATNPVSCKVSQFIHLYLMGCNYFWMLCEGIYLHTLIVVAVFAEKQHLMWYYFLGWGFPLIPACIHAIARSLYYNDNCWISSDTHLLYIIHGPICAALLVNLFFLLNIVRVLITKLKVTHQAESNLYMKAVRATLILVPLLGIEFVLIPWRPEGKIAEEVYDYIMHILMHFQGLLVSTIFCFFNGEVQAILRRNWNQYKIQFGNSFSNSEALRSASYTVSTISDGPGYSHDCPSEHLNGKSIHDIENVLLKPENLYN
T1 sequence (O60896 24-148): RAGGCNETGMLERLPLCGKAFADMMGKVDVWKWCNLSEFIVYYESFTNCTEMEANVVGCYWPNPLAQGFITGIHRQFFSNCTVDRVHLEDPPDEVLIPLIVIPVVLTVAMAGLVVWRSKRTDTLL

| Compound | IC50 |
| --- | --- |
| CNCc1ccccc1CN(CC(=O)Nc1ccc2c(c1)CC1(C2)C(=O)Nc2ncccc21)C(=O)C1(C)CCN(C(=O)c2ccncc2)CC1 (stereo not shown) [Example 6, 1-Isonicotinoyl-4-methyl-N-(2-((methylamino)methyl)benzyl)-N-(2-oxo-2-((2′-oxo-1,1′,2′,3-tetrahydrospiro[indene-2,3′-pyrrolo[2,3-b]pyridin]-5-yl)amino)ethyl)piperidine-4-carboxamide] | 2.29 nM |
| CNCc1ccccc1CN(CC(=O)Nc1ccc2c(c1)CC1(C2)C(=O)Nc2ncccc21)C(=O)C1(C)CCN(C(=O)c2ccccc2)CC1 (stereo not shown) [Example 4, 1-Benzoyl-4-methyl-N-(2-((methylamino)methyl)benzyl)-N-(2-oxo-2-((2′-oxo-1,1′,2′,3-tetrahydrospiro[indene-2,3′-pyrrolo[2,3-b]pyridin]-5-yl)amino)ethyl)piperidine-4-carboxamide] | 2.19 nM |
| CCC1(C(=O)N(CC(=O)Nc2ccc3c(c2)C[C@@]2(C3)C(=O)Nc3ncccc32)Cc2ccccc2CNC)CCN(C(=O)CN2CCC(F)(F)CC2)CC1 [Example 95, (R)-1-(2-(4,4-Difluoropiperidin-1-yl)acetyl)-4-ethyl-N-(2-((methylamino)methyl)benzyl)-N-(2-oxo-2-((2′-oxo-1,1′,2′,3-tetrahydrospiro[indene-2,3′-pyrrolo[2,3-b]pyridin]-5-yl)amino)ethyl)piperidine-4-carboxamide] | 12.6 nM |
| CCC1(C(=O)N(CC(=O)Nc2ccc3c(c2)C[C@@]2(C3)C(=O)Nc3ncccc32)Cc2ccccc2CNC)CCN(C(C)=O)CC1 [Example 68, (R)-1-Acetyl-4-ethyl-N-(2-((methylamino)methyl)benzyl)-N-(2-oxo-2-((2′-oxo-1,1′,2′,3-tetrahydrospiro[indene-2,3′-pyrrolo[2,3-b]pyridin]-5-yl)amino)ethyl)piperidine-4-carboxamide] | 1.41 nM |
| CNCc1ccccc1CN(CC(=O)Nc1ccc2c(c1)C[C@@]1(C2)C(=O)Nc2ncccc21)C(=O)C1(C)CCN(C(=O)C(C)C)CC1 [Example 16, (R)-1-Isobutyryl-4-methyl-N-(2-((methylamino)methyl)benzyl)-N-(2-oxo-2-((2′-oxo-1,1′,2′,3-tetrahydrospiro[indene-2,3′-pyrrolo[2,3-b]pyridin]-5-yl)amino)ethyl)piperidine-4-carboxamide] | 3.24 nM |
| CCC1(C(=O)N(CC(=O)Nc2ccc3c(c2)C[C@@]2(C3)C(=O)Nc3ncccc32)Cc2ccccc2CNC)CCN(C(=O)[C@H]2COCCN2)CC1 [Example 83, 4-Ethyl-N-(2-((methylamino)methyl)benzyl)-1-((R)-morpholine-3-carbonyl)-N-(2-oxo-2-(((R)-2′-oxo-1,1′,2′,3-tetrahydrospiro[indene-2,3′-pyrrolo[2,3-b]pyridin]-5-yl)amino)ethyl)piperidine-4-carboxamide] | 56.2 nM |
| CCC1(C(=O)N(CC(=O)Nc2ccc3c(c2)C[C@@]2(C3)C(=O)Nc3ncccc32)Cc2ccccc2CNC)CCN(C(=O)N2CCCC2)CC1 [Example 102, (R)-4-Ethyl-N-(2-((methylamino)methyl)benzyl)-N-(2-oxo-2-((2′-oxo-1,1′,2′,3-tetrahydrospiro[indene-2,3′-pyrrolo[2,3-b]pyridin]-5-yl)amino)ethyl)-1-(pyrrolidine-1-carbonyl)piperidine-4-carboxamide] | 6.92 nM |
| CCC1(C(=O)N(CC(=O)Nc2ccc3c(c2)C[C@@]2(C3)C(=O)Nc3ncccc32)Cc2ccccc2CNC)CCN(C(=O)N2CCC2)CC1 [Example 106, (R)-1-(Azetidine-1-carbonyl)-4-ethyl-N-(2-((methylamino)methyl)benzyl)-N-(2-oxo-2-((2′-oxo-1,1′,2′,3-tetrahydrospiro[indene-2,3′-pyrrolo[2,3-b]pyridin]-5-yl)amino)ethyl)piperidine-4-carboxamide] | 11.7 nM |
| CCC1(C(=O)N(CC(=O)Nc2ccc3c(c2)C[C@@]2(C3)C(=O)Nc3ncccc32)Cc2ccccc2CNC)CCN(C(=O)C(C)C)CC1 [Example 73, (R)-4-Ethyl-1-isobutyryl-N-(2-((methylamino)methyl)benzyl)-N-(2-oxo-2-((2′-oxo-1,1′,2′,3-tetrahydrospiro[indene-2,3′-pyrrolo[2,3-b]pyridin]-5-yl)amino)ethyl)piperidine-4-carboxamide] | 14.1 nM |
| CNCc1ccccc1CN(CC(=O)Nc1ccc2c(c1)C[C@@]1(C2)C(=O)Nc2ncccc21)C(=O)C1(C)CCN(C(=O)C2CCN(C(C)=O)CC2)CC1 [Example 12, (R)-1-(1-Acetylpiperidine-4-carbonyl)-4-methyl-N-(2-((methylamino)methyl)benzyl)-N-(2-oxo-2-((2′-oxo-1,1′,2′,3-tetrahydrospiro[indene-2,3′-pyrrolo[2,3-b]pyridin]-5-yl)amino)ethyl)piperidine-4-carboxamide] | 9.12 nM |
| CCC1(C(=O)N(CC(=O)Nc2ccc3c(c2)C[C@@]2(C3)C(=O)Nc3ncccc32)Cc2ccccc2CNC)CCN(C(=O)NC23CC(C2)C3)CC1 [Example 105] | 50.1 nM |
| CCC1(C(=O)N(CC(=O)Nc2ccc3c(c2)C[C@@]2(C3)C(=O)Nc3ncccc32)Cc2ccccc2CNC)CCN(C(=O)CN2CCOCC2)CC1 [Example 90, (R)-4-Ethyl-N-(2-((methylamino)methyl)benzyl)-1-(2-morpholinoacetyl)-N-(2-oxo-2-((2′-oxo-1,1′,2′,3-tetrahydrospiro[indene-2,3′-pyrrolo[2,3-b]pyridin]-5-yl)amino)ethyl)piperidine-4-carboxamide] | 22.9 nM |
| CCC1(C(=O)N(CC(=O)Nc2ccc3c(c2)C[C@@]2(C3)C(=O)Nc3ncccc32)Cc2ccccc2CNC)CCNCC1 [Example 67, (R)-4-Ethyl-N-(2-((methylamino)methyl)benzyl)-N-(2-oxo-2-((2′-oxo-1,1′,2′,3-tetrahydrospiro[indene-2,3′-pyrrolo[2,3-b]pyridin]-5-yl)amino)ethyl)piperidine-4-carboxamide] | 0.575 nM |
| CNCc1ccccc1CN(CC(=O)Nc1ccc2c(c1)C[C@@]1(C2)C(=O)Nc2ncccc21)C(=O)C1(C)CCN(c2ccncn2)CC1 [Example 61] | 2.14 nM |
| CNCc1ccccc1CN(CC(=O)Nc1ccc2c(c1)C[C@@]1(C2)C(=O)Nc2ncccc21)C(=O)C1(C)CCN(C(C)=N)CC1 [Example 58, (R)-1-(1-Iminoethyl)-4-methyl-N-(2-((methylamino)methyl)benzyl)-N-(2-oxo-2-((2′-oxo-1,1′,2′,3-tetrahydrospiro[indene-2,3′-pyrrolo[2,3-b]pyridin]-5-yl)amino)ethyl)piperidine-4-carboxamide] | 2.34 nM |

Second part, the compound after the results:

| IC50 | Compound |
| --- | --- |
| 417 nM | CNCc1cc(F)ccc1CN(CC(=O)Nc1ccc2c(c1)C[C@@]1(C2)C(=O)Nc2ncccc21)C(=O)C1(C)CCNCC1 [Example 137, (R)—N-[[4-Fluoro-2-(methylaminomethyl)phenyl]methyl]-4-methyl-N-[2-oxo-2-[[(3R)-2-oxospiro[1H-pyrrolo[2,3-b]pyridine-3,2′-indane]-5′-yl]amino]ethyl]piperidine-4-carboxamide] |
| 2.24 nM | CNCc1ccccc1CN(CC(=O)Nc1ccc2c(c1)C[C@@]1(C2)C(=O)Nc2ncccc21)C(=O)C1(C)CC2CCC(C1)N2C(C)=O (stereo partly drawn) [Example 148, 8-Acetyl-3-methyl-N-(2-((methylamino)methyl)benzyl)-N-(2-oxo-2-(((R)-2′-oxo-1,1′,2′,3-tetrahydrospiro[indene-2,3′-pyrrolo[2,3-b]pyridin]-5-yl)amino)ethyl)-8-azabicyclo[3.2.1]octane-3-carboxamide] |
| 10.5 nM | CNCc1ccccc1CN(CC(=O)Nc1ccc2c(c1)C[C@@]1(C2)C(=O)Nc2ncccc21)C(=O)C1(CC(F)(F)F)CCN(C(=O)N(C)C)CC1 [Example 121, (R)—N1,N1-Dimethyl-N4-(2-((methylamino)methyl)benzyl)-N4-(2-oxo-2-((2′-oxo-1,1′,2′,3-tetrahydrospiro[indene-2,3′-pyrrolo[2,3-b]pyridin]-5-yl)amino)ethyl)-4-(2,2,2-trifluoroethyl)piperidine-1,4-dicarboxamide] |
| 75.9 nM | CNCc1ccccc1CN(CC(=O)Nc1ccc2c(c1)C[C@@]1(C2)C(=O)Nc2ncccc21)C(=O)C1(C)CN(C(C)=O)C1 [Example 144, (R)-1-Acetyl-3-methyl-N-(2-((methylamino)methyl)benzyl)-N-(2-oxo-2-((2′-oxo-1,1′,2′,3-tetrahydrospiro[indene-2,3′-pyrrolo[2,3-b]pyridin]-5-yl)amino)ethyl)azetidine-3-carboxamide] |
| 214 nM | CNCc1ccccc1CN(CC(=O)Nc1ccc2c(c1)C[C@@]1(C2)C(=O)Nc2ncccc21)C(=O)C1(C(C)C)CCN(C(C)=O)CC1 [Example 123, (R)-1-Acetyl-4-isopropyl-N-(2-((methylamino)methyl)benzyl)-N-(2-oxo-2-((2′-oxo-1,1′,2′,3-tetrahydrospiro[indene-2,3′-pyrrolo[2,3-b]pyridin]-5-yl)amino)ethyl)piperidine-4-carboxamide] |
| 51.3 nM | CNCc1ccccc1CN(CC(=O)Nc1ccc2c(c1)C[C@@]1(C2)C(=O)Nc2ncccc21)C(=O)C1(C)CCN(C(C)=O)C1 (stereo partly drawn) [Example 143, Acetyl-3-methyl-N-(2-((methylamino)methyl)benzyl)-N-(2-oxo-2-(((R)-2′-oxo-1,1′,2′,3-tetrahydrospiro[indene-2,3′-pyrrolo[2,3-b]pyridin]-5-yl)amino)ethyl)pyrrolidine-3-carboxamide] |
| 69.2 nM | CCC1(C(=O)N(CC(=O)Nc2ccc3c(c2)C[C@@]2(C3)C(=O)Nc3ncccc32)Cc2ccccc2CNC)CCN(C(=O)OC(C)C)CC1 [Example 114, (R)-Isopropyl 4-ethyl-4-((2-((methylamino)methyl)benzyl)(2-oxo-2-((2′-oxo-1,1′,2′,3-tetrahydrospiro[indene-2,3′-pyrrolo[2,3-b]pyridin]-5-yl)amino)ethyl)carbamoyl)piperidine-1-carboxylate] |
